Reference: US20100267561A1, “HERBICIDAL PYRIDAZINONE DERIVATIVES” (priority 2007, published 2010)

Columns and labels:
Format in all cases: in vivo
[1] = tested on: windgrass (Apera spica-venti); assay: Test B postemergence plant response; conditions: Postemergence
Method in brief: (§1)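 Visual injury ratings on a 0–100 scale, where 100 means complete control, were made 13 to 15 days after postemergence treatment of greenhouse-grown plants at the 1- to 4-leaf stage.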

[2] = tested on: canarygrass (Phalaris minor); assay: Test B postemergence plant response; conditions: Postemergence
Method in brief: as §1

[3] = tested on: chickweed (Stellaria media); assay: Test B postemergence plant response; conditions: Postemergence
Method in brief: as §1

[4] = tested on: winter barley (Hordeum vulgare); assay: Test B postemergence plant response; conditions: Postemergence, scale 0 to 100
Method in brief: as §1

[5] = tested on: velvetleaf (Abutilon theophrasti); assay: Test A pre-/postemergence plant response
Method in brief: (§2)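 Greenhouse pot test: loam–sand soil; pre- and postemergence sprays applied same day; post plants 2–10 cm, 1–2 leaves. Readout ~10 d, visual % injury vs untreated (0 = none, 100 = complete control).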

[6] = tested on: barnyardgrass (Echinochloa crus-galli); assay: Test A pre-/postemergence plant response
Method in brief: as §2

[7] = tested on: giant foxtail (Setaria faberi); assay: Test A pre-/postemergence plant response
Method in brief: as §2

[8] = tested on: morningglory (Ipomoea coccinea); assay: Test A pre-/postemergence plant response
Method in brief: as §2

[9] = tested on: corn (Zea mays); assay: Test A pre-/postemergence plant response
Method in brief: as §2

[10] = tested on: large crabgrass (Digitaria sanguinalis); assay: Test A pre-/postemergence plant response
Method in brief: as §2

[11] = tested on: wheat (Triticum aestivum); assay: Test B pre-/postemergence plant response
Method in brief: (§3)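 Visual scoring from 0 (no effect) to 100 (complete control) against untreated controls was done 13 to 15 days after greenhouse treatment. Chemicals were formulated in a surfactant-containing non-phytotoxic solvent and applied to soil preemergence or to 1- to 4-leaf (2-18 cm) plants postemergence.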

[12] = tested on: yellow nutsedge (Cyperus esculentus); assay: Test B pre-/postemergence plant response
Method in brief: as §3

[13] = tested on: wild oat (Avena fatua); assay: Test B pre-/postemergence plant response
Method in brief: as §3

[14] = 31 g ai/ha, scale 0 to 100, 0 no effect, 100 complete control
[15] = Postemergence, 125 g ai/ha, 0 to 100 scale, 0 no effect, 100 complete control
[16] = Postemergence, 500 g ai/ha, 0 to 100 scale, 0 no effect, 100 complete control
[17] = Preemergence, 125 g ai/ha, 0 to 100 scale (0 no effect, 100 complete control)
[18] = Preemergence, 500 g ai/ha, 0 to 100 scale (0 no effect, 100 complete control)
[19] = Postemergence, 31 g ai/ha, scale 0 to 100, 0 no effect, 100 complete control
[20] = Postemergence, 62 g ai/ha, scale 0 to 100
[21] = Postemergence, 125 g ai/ha, scale 0 to 100
[22] = Preemergence, 31 g ai/ha, 0 to 100 scale, 0 no effect, 100 complete control
[23] = Preemergence, 62 g ai/ha, scale 0 to 100
[24] = Preemergence, 125 g ai/ha, scale 0 to 100
[25] = Preemergence, 250 g ai/ha, scale 0 to 100
[26] = Postemergence, 250 g ai/ha, scale 0 to 100

Substance: 5-[3-(4-chlorophenyl)-5-methyl-1H-pyrazol-1-yl]-1,6-dihydro-1-methyl-6-oxo-4-pyridazinyl-1-methylethyl carbonate [Compound 7]
- Plant response rating, Windgrass [1, 14]: 80
- Plant response rating, Windgrass ([1]; 62 g ai/ha, scale 0 to 100): 85
- Plant response rating, Windgrass ([1]; 125 g ai/ha, scale 0 to 100): 100
- Plant response rating, Windgrass ([1]; 250 g ai/ha, scale 0 to 100): 100
- Plant response rating, Canarygrass [2, 14]: 90
- Plant response rating, Canarygrass ([2]; 125 g ai/ha, scale 0 to 100): 90
- Plant response rating, Canarygrass ([2]; 250 g ai/ha, scale 0 to 100): 90
- Plant response rating, Chickweed [3, 14]: 0
- Plant response rating, Chickweed ([3]; 62 g ai/ha, scale 0 to 100): 0
- Plant response rating, Chickweed ([3]; 125 g ai/ha, scale 0 to 100): 0
- Plant response rating, Chickweed ([3]; 250 g ai/ha, scale 0 to 100): 0
- Plant response rating, Barley ([4]; 62 g ai/ha): 0
- Plant response rating, Barley ([4]; 125 g ai/ha): 0
- Plant response rating, Barley ([4]; 250 g ai/ha): 0
- Plant response rating, Velvetleaf [5, 15]: 20
- Plant response rating, Velvetleaf [5, 16]: 40
- Plant response rating, Velvetleaf [5, 17]: 0
- Plant response rating, Velvetleaf [5, 18]: 30
- Plant response rating, Barnyardgrass [6, 15]: 80
- Plant response rating, Barnyardgrass [6, 16]: 100
- Plant response rating, Barnyardgrass [6, 17]: 100
- Plant response rating, Barnyardgrass [6, 18]: 100
- Plant response rating, Foxtail, Giant [7, 15]: 90
- Plant response rating, Foxtail, Giant [7, 16]: 90
- Plant response rating, Foxtail, Giant [7, 17]: 100
- Plant response rating, Foxtail, Giant [7, 18]: 100
- Plant response rating, Morningglory [8, 15]: 0
- Plant response rating, Morningglory [8, 16]: 20
- Plant response rating, Morningglory [8, 17]: 20
- Plant response rating, Morningglory [8, 18]: 20
- Plant response rating, Corn [9, 15]: 50
- Plant response rating, Corn [9, 16]: 100
- Plant response rating, Corn [9, 17]: 60
- Plant response rating, Corn [9, 18]: 90
- Plant response rating, Crabgrass, Large [10, 15]: 80
- Plant response rating, Crabgrass, Large [10, 16]: 90
- Plant response rating, Crabgrass, Large [10, 17]: 100
- Plant response rating, Crabgrass, Large [10, 18]: 100
- Plant response rating, Wheat [11, 19]: 60
- Plant response rating, Wheat [11, 20]: 80
- Plant response rating, Wheat [11, 21]: 95
- Plant response rating, Wheat [11, 22]: 0
- Plant response rating, Wheat [11, 23]: 65
- Plant response rating, Wheat [11, 24]: 80
- Plant response rating, Wheat [11, 25]: 95
- Plant response rating, Nutsedge, Yellow [12, 19]: 0
- Plant response rating, Nutsedge, Yellow [12, 20]: 0
- Plant response rating, Nutsedge, Yellow [12, 21]: 0
- Plant response rating, Nutsedge, Yellow [12, 26]: 0
- Plant response rating, Nutsedge, Yellow [12, 22]: 0
- Plant response rating, Nutsedge, Yellow [12, 23]: 0
- Plant response rating, Nutsedge, Yellow [12, 24]: 0
- Plant response rating, Nutsedge, Yellow [12, 25]: 0
- Plant response rating, Oat, Wild [13, 19]: 95
- Plant response rating, Oat, Wild [13, 20]: 95
- Plant response rating, Oat, Wild [13, 21]: 95
- Plant response rating, Oat, Wild [13, 26]: 95
- Plant response rating, Oat, Wild [13, 22]: 0
- Plant response rating, Oat, Wild [13, 23]: 70
- Plant response rating, Oat, Wild [13, 24]: 80
- Plant response rating, Oat, Wild [13, 25]: 85
